From patent US6569456B2, “Osmotic device containing diltiazem and an ACE inhibitor or diuretic” (priority 2000, dated 2003) come the findings set out here.

The nature of this data set: separate study of diltiazem half-life. To be noted: in vivo. From the text: The delayed release of the diltiazem causes a delay in the onset of diltiazem build-up in the plasma. Accordingly, onset of the side effects (adverse events) associated with diltiazem therapy have a delayed onset and a patient taking the medication before a rest period should not experience any difficulty in falling asleep.

By half-life is commonly meant the time in which the quantity being followed falls by half. Low readings indicate fast loss, high ones slow loss. Regarding `COc1ccc([C@@H]2Sc3ccccc3N(CCN(C)C)C(=O)[C@@H]2OC(C)=O)cc1` [diltiazem], the half-life was about 8.5 h.
